Counter-ions that a name gives are not always drawn. Like-named read-outs stand apart in the source and are kept apart here.
Key:
prolactin = test: Prolactin blood level in rats (enzyme immunometric assay); type: in vivo, rat
Description: Prolactin secretion: Typical neuroleptics induce hyperprolactinemia, which is frequently associated with gallactorehea and impaired gonadal and sexual function. The measurement of the circulatory plasma prolactin level was therefore used as a sensitive biochemical marker for the psychotropic activity of the known neuroleptics and the chemical conjugates of the present invention, following intraperitoneal or oral administration thereof. Thus, blood was collected from the punctured eye orbital of rats under ether anesthesia and the assay was performed using Millennia, rat prolactin enzyme immunometric assay-kit (DPC, USA).

mice = test: Catalepsy in mice (bar between two cages); type: in vivo, mouse
Experimental: Young adult male and female mice were purchased from Harlan, Israel. The animals were housed for 4-7 days under controlled conditions prior to experimentation. Experiments were conducted in a double blind procedure. In each experiment various treatment groups (about 10 animals each) were tested.
Catalepsy in mice: The appearance of stereotypic cataleptic behavior in mice following the neuroleptic treatment was measured in two different sets of experiments.
The catalepsy was determined using a system of two cages and a bar therebetween. The mouse was hung in the middle of the bar, and the percentage of animals reaching the target within 2 minutes was monitored 1 hour, 2 hours and 3 hours following the treatment.
The catalepsy was determined using the system described hereinabove. The mouse was hung in the middle of the bar, and the time it took the animal to reach the target was measured.

B16 MDR = test: Proliferation test, B16 MDR cells; type: cell-based, murine; conditions: Mus musculus; linear regression of survival percentage
Experimental: (§1) Cell lines: Human prostate carcinoma (PC-3), human colon carcinoma (HT-29), murine melanoma (B-16) and its drug resistant subclone (B-16 MDR), mouse fibroblasts (3T3), myeloid leukemia (HL 60) and its drug resistant subclone (HL 60 MX2), endometrium cell line (MES SA) and its drug resistant subclone (MES DX5), jurkat T lymphoma and monocyte leukemia (U-937), were used in this study.
(§2) Proliferation of cancer and normal cells: Proliferation was measured by neutral red assay or by a fluorometric assay quantitating DNA content. In the neutral red assay, the neutral red is absorbed by lysosomes, thus causing coloring of living cells. Quantitative analysis is performed by colorimetric assay (ELISA reader at 550 nm). In the fluorometric assay, alamar blue is used as a redox indicator. Alamar blue fluorescence was measured at an excitation wavelength of 544 nm and an emission wavelength of […] (FLUOstar BMG Lab Technologies, Offenburg, Germany).
(§3) The cells were sub-cultured and the tested compounds were added thereto in increasing concentrations. The IC50 values were determined by linear regression of the survival percentage of the cells.

HT-29 = test: Proliferation test, HT-29 cells; type: cell-based; conditions: Homo sapiens, linear regression of survival percentage
Experimental: as §1, §2, §3

PC-3 = test: Proliferation test, PC-3 cells; type: cell-based; conditions: Homo sapiens, linear regression of survival percentage
Experimental: as §1, §2, §3

Normal rat fibroblasts = test: Proliferation test, normal rat fibroblasts; type: cell-based; conditions: Fibroblast, linear regression of survival percentage
Experimental: The primary cultures of rat fibroblasts were obtained from neonatal rats using known procedures.
as §2, §3

HL 60 = test: Proliferation test, HL 60 cells; type: cell-based; conditions: Homo sapiens, linear regression of survival percentage
Experimental: as §1, §2, §3

HL 60 MX2 (MDR) = test: Proliferation test, HL 60 MX2 (MDR) cells; type: cell-based; conditions: Homo sapiens, HL60/MX2; linear regression of survival percentage
Experimental: as §1, §2, §3

MES SA = test: Proliferation test, MES SA cells; type: cell-based; conditions: Homo sapiens, linear regression of survival percentage
Experimental: as §1, §2, §3

Jurkat T lymphoma cells = test: Proliferation / viability test, Jurkat T lymphoma cells; type: cell-based; conditions: Homo sapiens
Experimental: as §1, §2, §3

U-937 = test: Proliferation test, U-937 cells; type: cell-based; conditions: Homo sapiens, linear regression of survival percentage
Experimental: as §1, §2, §3

C6 rat glioma cells [1] = test: Viability of C6 rat glioma cells (neutral red); type: cell-based
Experimental: as §2
The cells were sub-cultured and the tested compounds were added thereto in increasing concentrations, up to 100 μM.

C6 rat glioma cells [2] = test: DNA fragmentation in C6 rat glioma cells (propidium iodide flow cytometry); type: cell-based; conditions: Cisplatin 30 μM; perphenazine 25 and 50 μM; AN 168 25, 50 μM (FIG. 18)
Experimental: Apoptosis and DNA fragmentation: Fragmentation of cell nuclei was studied by flow cytometric analysis of propidium iodide-stained cells. This analysis was performed using a FACScan (Becton Dickinson, Mountain View, Calif.) equipped with an argon ion laser adjusted to an excitation wavelength of 480 nm and with a Doublet Discrimination Module (DDM). Lysis II (Becton Dickinson) software was used for data acquisition. Apoptotic nuclear changes were evaluated according to the criteria of Nicolletti et al..
The DNA fragmentation was determined by the propidium iodide flow cytometric method described hereinabove.

rats [3] = test: D-Amphetamine-induced hyperactivity in rats; type: in vivo, rat; conditions: i.p., amphetamine 2.5 mg/kg i.p.
Experimental: D-Amphetamine-induced hyperactivity in rats: The efficacy of the chemical conjugates of the present invention was studied using the D-amphetamine-induced hyperactivity and motility model, which is known as one of the most established animal models for schizophrenia.
Naïve Wistar male rats were placed in individual boxes. In each experiment 4 rats were studied. Perphenazine or equimolar doses of its chemical conjugate AN-168 were administered intraperitoneally (ip) to the rats 30 minutes prior to intraperitoneal administration of amphetamine (2.5 mg/kg), or 90 minutes prior to oral administration of amphetamine (2.5 mg/kg). The animals locomotor activity was assessed using two parameters: climbing attempts of the animal on the barrel walls (as big movements) and head movement of the animal (as small movements). Assessment was recorded every 15 minutes for two hours. Each animal was tested at each time point for 120 seconds.
The climbing behavior of the rats in each group was measured as described hereinabove.

rats [4] = conditions: rat, in vivo
Experimental: Animals: Young adult male rats (150-230 grams) were purchased from Harlan (Israel). Animals were divided 2-5/cage and housed in controlled conditions in the animal room for a week prior to the experiments. The experiments were conducted with naive animals, in a double blind procedure. In each experiment various treatment groups (about 5-10 animals each) were tested.
Catalepsy in rats: The manifestation of the extrapyramidal adverse effects induced by typical neuroleptics was evaluated by the appearance of stereotypic cataleptic behavior in rats following the neuroleptic treatment. Catalepsy was determined by two methods: (i) by measuring the time it took an animal hanging on a cage wall to move its hind legs and reach a flat surface (the “wall” test); and (ii) rats were placed on a flat surface with their anterior limbs leaning on a flat bar (5.5 cm height) resembling a piano playing position. Catalepsy was determined by the time it took an animal to descend and reach the flat surface (the “piano” test). The maximum time of follow up was 2 minutes and these measurements were performed hourly and individually for each animal. These tests provide an assessment of central dopamine (DA) blocking activity and are acceptable criteria for extrapyramidal symptoms induced by anti-psychotic drugs [10].
A control animals group was treated with the vehicle (lactic acid) only.

rats [5] = test: Behavioral criteria: sedation and mobility score in rats; conditions: score 0-3; for Sedation score: oral, 4-6 hours after treatment
Experimental: The effect of the administration of the tested compound on animals behavior was measured by evaluating the degree of animal sedation and mobility following the treatment described hereinabove, using a score of from 0 to 3. A score of 0 represents active and mobile animals, 1 represents calm and mobile animals, 2 represents calm and immobile animals and 3 represents completely ataxic and non-alert animals.

[6] = C6 glioma (MDR) cells, 24 hours (FIG. 14)

SMILES: NCCCC(=O)OCCN1CCN(CCCN2c3ccccc3Sc3ccc(Cl)cc32)CC1 [AN-168, Perphenazine 4-aminobutyrate Trihydrochloride]
- time at which prolactin blood level peaked (prolactin; i.p., measured at 0, 60 and 120 min after treatment): 60 min
- prolactin blood level compared with perphenazine (prolactin; oral, higher dose, 0, 90, 180 min (FIG. 12)): much higher as compared with animals treated with perphenazine
- catalepsy: percentage of animals reaching the target within 2 minutes (mice; adult male mice, 1.5 mg/kg perphenazine or equimolar dose (FIG. 7a)): substantially lower disability
- catalepsy: time it took the animals to reach the target (mice; young female mice, 2.5 mg/kg perphenazine or equimolar dose, 2 and 3 hours after treatment (FIG. 7b)): much faster than the animals treated with perphenazine alone
- IC50 (B16 MDR): 23 ± 16 µM
- IC50 (HT-29): 23.1 ± 9 µM
- IC50 (PC-3): 45.5 µM
- IC50 (Normal rat fibroblasts): 45.8 µM
- IC50 (HL 60): 15.1 µM
- IC50 (HL 60 MX2 (MDR)): 18.4 µM
- IC50 (MES SA): 18.2 µM
- IC50 (Jurkat T lymphoma cells; alamar blue method (FIG. 15), read-out: IC50, Jurkat T lymphoma cells viability): 19 µM
- IC50 (Jurkat T lymphoma cells; linear regression of survival percentage, read-out: IC50, JURKAT): 11.3 µM
- IC50 (U-937): 14.2 µM
- anti-proliferative activity in C6 glioma cells (C6 rat glioma cells [1]; [6]): high anti-proliferative activity
- concentration causing substantial cell death (C6 rat glioma cells [1]; [6]): about 20 μM
- IC50 (C6 rat glioma cells [1]; Rattus norvegicus, Glioma cell, 24 hours treatment, neutral red, up to 100 μM (FIG. 14)): 24.2 µM
- DNA fragmentation (C6 rat glioma cells [2]): induced a dramatically increase in DNA fragmentation
- D-amphetamine-induced climbing behavior (rats [3]; AN-168 0.5 or 1.5 mg/kg, two hours (FIGS. 22, 23)): completely antagonized the climbing behavior induced by amphetamine even at low doses
- D-amphetamine-induced head movements and other small body movement (rats [3]; two hours (FIGS. 24, 25)): inferior to that of perphenazine
- time course of catalepsy (rats [4]; male, ip): no catalepsy through the entire 7 hours period
- time course of catalepsy, conjugate versus mixture (rats [4]; male, ip, 120 min): abolished after 120 minutes
- average of total catalepsy as percentage of the perphenazine-induced catalepsy (rats [4]): reduced the induced catalepsy to almost a zero value
- total catalepsy, conjugate versus mixture (rats [4]; ip): very low catalepsy
- induced catalepsy, SAR studies (rats [4]; ip, 5 mg/kg): almost maximal reduction of induced catalepsy
- total catalepsy (rats [4]; ip, 5 mg/kg): did not induce catalepsy at all
- total catalepsy (rats [4]; po): cataleptic symptoms were almost abolished
- sedation and mobility score, 30 min (rats [5]; i.p., 5 mg/kg perphenazine, 7.5 mg/kg fluphenazine or equimolar conjugate, 30 min): 0
- sedation and mobility score, 60 min (rats [5]; i.p., 5 mg/kg perphenazine, 7.5 mg/kg fluphenazine or equimolar conjugate, 60 min): 0
- sedation and mobility score, 90 min (rats [5]; i.p., 5 mg/kg perphenazine, 7.5 mg/kg fluphenazine or equimolar conjugate, 90 min): 1
- sedation and mobility score, 120 min (rats [5]; i.p., 5 mg/kg perphenazine, 7.5 mg/kg fluphenazine or equimolar conjugate, 120 min): 1
- sedation and mobility score, 180 min (rats [5]; i.p., 5 mg/kg perphenazine, 7.5 mg/kg fluphenazine or equimolar conjugate, 180 min): 1
- sedation and mobility score, 240 min (rats [5]; i.p., 5 mg/kg perphenazine, 7.5 mg/kg fluphenazine or equimolar conjugate, 240 min): 1
- Sedation score (rats [5]; 3.5 mg/kg): 0
- Sedation score (rats [5]; 7 mg/kg): 0
- Sedation score (rats [5]; 14 mg/kg): 1
- Sedation score (rats [5]; 28 mg/kg): 2

Source: patent US8168628B2, “Conjugated psychotropic drugs and uses thereof” (Ramot at Tel-Aviv University Ltd., priority 2001, dated 2012)
